We go through five compounds from US20230220443A1, “CHARACTERIZATION OF S-ADENOSYL-L-METHIONINE-CONSUMING ENZYMES WITH 1-STEP EZ-MTASE: A UNIVERSAL COUPLED-ASSAY” (ALBERT EINSTEIN COLLEGE OF MEDICINE, priority 2017, published 2023).

For series [1] the following is noted: cited from earlier work.
Series [2] in a line: pKa from pH-dependence of differential extinction coefficient (UV). Format: physicochemical. How it is done:
Nucleoside concentrations (stock solutions) were determined using known extinction coefficients for: adenosine, 259(ε/M^−1 cm^−1 15,400) and 8-aza-adenosine, 277(e/M-1 cm^−1 17,830). The deaminase reactions using these various substrates were performed in quartz cuvettes (1-cm light path; 3-mL reaction volume) and absorbance measurements were carried out with a NanoDrop 2000c (scan mode: 220-320 nm with multi scans superimposed; 37° C. and continuous stirring). Briefly, the 3-mL reactions contained 50 mM buffer (acetate: pH 4.00-5.00; MES: pH 5.00-6.50; phosphate: pH 5.80-8.00; TRIS: pH 7.50-8.50; CHES: pH 8.90-9.90), 1 mM βME and 10% glycerol. Five different concentrations of either adenosine or 8-aza-adenosine substrates were used (10, 20, 30, 40 and 50 μM). Mixtures were blanked before acquisition and reactions started upon addition of deaminase (TM0936, 2 μL of 240.5 μM enzyme stock). Over the course of the deaminase reaction (e.g. adenosine→inosine), optimum wavelengths at which the highest absorbance shift is observed were selected (i.e. adenosine reaction, λ=[…]; 8-aza-adenosine reaction, λ1=282 nm and λ2=292 nm). Scans were recorded until the absorbance at these monitored wavelengths reached a stable value (82). For each pH condition, the end-point absorbance shifts were plotted against initial nucleoside concentrations and fitted to a linear regression: each slope is a differential extinction coefficient (Δε) for deamination of the specific nucleoside substrate. Furthermore, the pH-dependence of differential extinction coefficient (Ae) for this deaminase reaction was obtained by plotting the pairs (Δε; pH) and fitting these to the following supplementary Eq. 2:
where ΔεHIGH pH and ΔεLOW pH are the extinction coefficient measured at optimum wavelengths (i.e. λ for adenosine and λ1 or λ2 for 8-aza-adenosine) for the deaminase reaction at high and low pH, respectively, and […] is the logarithm of acid dissociation constant for either inosine or 8-aza-inosine.

The next series addresses T1, GsSDMT (Galdieria sulphuraria, UniProt M2XPA0).
T1 sequence (M2XPA0 2-297): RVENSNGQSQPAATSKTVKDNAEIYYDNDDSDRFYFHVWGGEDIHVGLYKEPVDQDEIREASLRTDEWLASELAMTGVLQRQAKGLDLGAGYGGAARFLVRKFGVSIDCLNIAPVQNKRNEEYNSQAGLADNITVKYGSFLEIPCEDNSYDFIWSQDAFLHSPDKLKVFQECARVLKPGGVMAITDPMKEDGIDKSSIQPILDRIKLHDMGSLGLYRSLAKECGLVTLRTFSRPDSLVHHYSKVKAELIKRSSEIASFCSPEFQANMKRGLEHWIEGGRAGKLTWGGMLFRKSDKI
Kind of series: 1-Step EZ-MTase UV-based coupled assay, GsSDMT kinetics. Format: biochemical. The note with it: pH=7.80, co-substrate saturating. As for the experimental part: Kinetic behavior for sarcosine against GsSDMT (SAM sat.)—Experiments were conducted following matching CePRMT5 protocol above. Briefly, the 100-μL mixtures from a same row contained 100 mM phosphate buffer pH=7.80, 1 mM βME, 5% glycerol, 100 μM MgCl2, 4 μM coupling deaminase TM0936, 976 nM GsSDMT and various sarcosine concentrations (0.5-12.5 mM; in the first well, sarcosine was omitted to account for background signal—natural decomposition of SAM). Reactions started upon addition of SAM (750 μM saturating final concentration), 60-μL volumes were transferred onto UV plate and absorbance was recorded. Initial rates were first corrected for background signal, and then plotted against sarcosine concentrations. Fit to the Michaelis-Menten equation provided corresponding kinetic parameters.
Kinetic behavior for SAM against GsSDMT (sarcosine sat.)—Experiments were conducted following matching CePRMT5 protocol above. Briefly, the measurements consisted of two experimental subsets: MTase reactions (both SAM and sarcosine added) and MTase blanks (SAM was added without sarcosine to account for natural SAM decomposition). The 100-μL reaction mixtures from a same row contained 100 mM phosphate buffer pH=7.80, 1 mM βME, 5% glycerol, 100 μM MgCl2, 4 μM coupling deaminase TM0936, 195 nM GsSDMT and various SAM concentrations (49.9-750.2 μM). Reactions started upon addition of either sarcosine (10 mM saturating final concentration; MTase reactions) or water (MTase blanks), 60-μL volumes were transferred onto UV plate and absorbance was recorded at 263 nm. Initial rates were first corrected for background signal, and then plotted against SAM concentrations. Fit to the Michaelis-Menten equation provided corresponding kinetic parameters.
Kinetic behavior for 8-aza-SAM against MTases (acceptor sat.)—Briefly, kinetic parameters were determined at 20° C. in a UV-Star 96-well flat bottom plate (Greiner Bio-One, #655801) by continuous monitoring of absorbance at 282 nm using a SpectraMax M5 instrument (Molecular Devices). As for SAM experiments, the measurements consisted of two experimental subsets: MTase reactions (both 8-aza-SAM and acceptor added) and MTase blanks (8-aza-SAM was added without acceptor to account for natural 8-aza-SAM decomposition). The 250-μL (60-μL) reaction mixtures from a same row contained 50 mM phosphate buffer pH=7.60 (7.80), 1 mM βME, 10% glycerol (5% glycerol, 100 μM MgCl2), 4 μM coupling deaminase TM0936, either 1.5 μM CePRMT5 or 402 nM TbPRMT7 (or 610 nM GsSDMT) and various 8-aza-SAM concentrations. […] Initial rates were first corrected for background signal, then plotted against 8-aza-SAM concentrations and fitted to the Michaelis-Menten equation to yield corresponding kinetic parameters.

For another series, the target named is T2, deaminase TM0936 (Thermotoga maritima, UniProt Q9X034).
T2 construct: polyhistidine; made in house; host or cells: bacteria
T2 sequence (Q9X034 1-406): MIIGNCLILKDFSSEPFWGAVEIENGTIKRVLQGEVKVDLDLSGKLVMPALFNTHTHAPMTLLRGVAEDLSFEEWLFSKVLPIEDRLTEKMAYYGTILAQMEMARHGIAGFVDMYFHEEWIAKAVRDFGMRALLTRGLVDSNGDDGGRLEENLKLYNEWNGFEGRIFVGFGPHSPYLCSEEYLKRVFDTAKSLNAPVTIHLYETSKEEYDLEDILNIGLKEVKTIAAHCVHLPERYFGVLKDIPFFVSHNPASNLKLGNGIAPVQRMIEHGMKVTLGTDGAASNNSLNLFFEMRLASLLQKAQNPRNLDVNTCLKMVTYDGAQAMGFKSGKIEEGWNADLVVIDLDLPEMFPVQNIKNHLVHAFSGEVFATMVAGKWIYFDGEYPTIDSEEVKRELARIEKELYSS
Kind of series: Deamination by coupling enzyme TM0936. The series is classed as biochemical. How it is done:
FIG. 9A-9D. Sinefungin is a positive control compatible with the 1-Step EZ-MTase assay. (A) MTAN-based assays catabolize the methyltransferase inhibitor sinefungin (SIN). […] (C) pH-dependence of the reaction between sinefungin and TM0936. […] (D) Inhibition of the sarcosine/dimethylglycine methyltransferase by sinefungin. […] The initial methyltransfer rates were recorded at 263 nm. Further analysis provided the inhibition constant Ki (1.8±0.4 μM).

Series [3] can be described thus: pKa from pH-dependence of fluorescence. The series is classed as physicochemical. The note with it: 50 mM buffer series. How it is done:
Calibration of fluorescence signal for the 8-aza-A to 8-aza-I reaction—This procedure is very similar to the one described under “Differential Extinction Coefficients (Δε) for Deaminase Reaction”. Briefly, standard solutions (240 μL) of 8-aza-adenosine (0-25 μM; 12 data points) containing 50 mM buffer (pH 5.00-9.50), 10% glycerol and 1 mM βME, were loaded into a […] black flat bottom plate. 10-μL water per well were added to one data-set (12 concentrations of 8-aza-adensoine); 10-μL TM0936 solution (24.05 μM) were added to the remaining samples (12 concentrations of 8-azaadenosine at various pH values). The loss of fluorescence (Em=360 nm) from 8-azaadenosine standard solutions (Ex=282/292 nm) where recorded with a Spectramax M5 plate reader until no change in signal could be observed.
At a same pH, the comparison between end-point deaminase reactions and reference well (TM0936 added but no 8-aza-adenosine) provided the pH-dependence of 8-azainosyl fluorescence. […] Furthermore, the comparison between end-point deaminase reactions and reference well (various 8-aza-adenosine concentrations but no TM0936 added) provided the calibration curve of fluorescence signal for the 8-aza-adenosine to 8-aza-ionisine reaction. […]

For orientation: pKa means the negative logarithm of the acid dissociation constant. The term kcat denotes the number of substrate molecules converted per active site and unit of time at saturation. As a reminder, the Km is the substrate concentration at which the rate is half of its maximum.

Structures are written as SMILES. Several values for one entry are separate records, joined by “and”; a condition that tells them apart may be missing. Identical values can stand only once. Like-named read-outs stand apart in the source and are kept apart here.

`OC[C@H]1O[C@@H](n2cnc3c(O)ncnc32)[C@H](O)[C@@H]1O` [inosine]: the pKa is 8.9 and 8.85 in series [1] (inosine, literature); 8.72 ± 0.09 in series [2] (263 nm).

Turning to `CNCC(=O)O` [Sarcosine, sarcosine], the pKa in series [1] (methyl-amine group from sarcosine) was 10.0; in series [1] (sarcosine carboxylate) it was “≈ 2.2”. Besides, the kcat on GsSDMT is 1.5 ± 0.083 s⁻¹.

Take `Nc1ncnc2c1ncn2[C@@H]1O[C@H](CO)[C@@H](O)[C@H]1O` [adenosine]: at deaminase TM0936 (10 μM substrate, 1 nM TM0936 (FIG. 7A)), the “deamination by TM0936, slower than that of its 8-aza analog” value turned out to be 10 fold.

With `Nc1ncnc2c1ncn2[C@@H]1O[C@H](CSCC[C@H](N)C(=O)O)[C@@H](O)[C@H]1O` [SAH, S-adenosyl-L-homocysteine], on deaminase TM0936 (room temperature), the Km worked out at 0.6 ± 0.2 µM and the kcat amounted to 7.1 ± 0.4 s⁻¹.

Consider `OC[C@H]1O[C@@H](n2nnc3c(O)ncnc32)[C@H](O)[C@@H]1O` [8-aza-inosine], for which the pKa in series [2] (282 nm) came out at 7.29 ± 0.03; in series [2] (292 nm), 7.3 ± 0.03; in series [3] (pH 5.00-9.50, Ex/Em 282/360 nm) it was 7.5 ± 0.03; in series [3] (pH 5.00-9.50, Ex/Em 292/360) it was 7.54 ± 0.04.
